What was measured:
Assay type in all cases: in vivo, BALB/c mice
[1] = tested on: mouse fibrosarcoma cell line CMS5a; test: Mouse tumor growth test; details: FIG. 2; single dose of vaccine with CpG oligo DNA before subcutaneous CMS5a implantation (prophylactic condition); Student's t test
Description: Long chain peptide antigens MEN, all containing three types of mouse CD8+ T cell epitope sequences (MA p265 (Sequence No. 27), NY p81 (Sequence No. 29), and mERK2 9m (Sequence No. 28)), were synthesized. The interepitope sequences between the respective epitopes were respectively six consecutive tyrosines (Y6) (Sequence No. 1), six consecutive glycines (G6) (Sequence No. 2), or six consecutive prolines (P6) (Sequence No. 3). Each long chain peptide antigen was complexed with CHP and administered in a single dose as a vaccine to a mouse. As a control, a short chain peptide vaccine, constituted of just the mERK2 9m peptide, was mixed with Freund's incomplete adjuvant and administered. In the process of administration, CpG oligo DNA was coadministered as an adjuvant. On the day after administration, a mouse fibrosarcoma cell line CMS5a, expressing mERK2 as a tumor antigen and presenting the CD8+ T cell epitope mERK2 9m derived from the same antigen, was implanted subcutaneously and its growth was recorded over time.
A subcloned CMS5a cell line, obtained from a CMS5 cell line isolated from fibrosarcoma induced by administering 3-methylcholanthrene to a BALB/c mouse, expresses mutant ERK2 (mERK2) as a tumor antigen and presents a CD8^+ T cell epitope derived from the mERK2. The CMS5a cell line cultured in a T75 flask (Nunc) was detached using PBS containing 0.5% trypsin and collected in RPMI1640 medium containing 10% FBS. After centrifuging (400×g, 5 minutes, 4° C.), the supernatant was removed, and the cells were rinsed twice with RPMI1640 medium, thereafter suspended in RPMI1640 medium at a concentration of 1×10^6 cells/100 μL, and implanted subcutaneously in BALB/c mice at a dose of 100 μL/individual. The CHP/long chain peptide complexes and the adjuvant were administered 7 days before tumor implantation (prophylactic condition). After tumor implantation, the length and breadth of the tumor were measured and the product thereof was recorded as tumor size. The data in the tumor growth test were compared by Student's t test using Microsoft® Excel® (Microsoft Corporation).

[2] = tested on: F4/80+ cells (macrophages); test: Uptake of FAM-labeled long chain peptide antigens in individual animals, regional lymph node macrophages; details: FIG. 9, complexed with CHP, subcutaneous, 16 hours after administration
Experimental: The same FAM-labeled long chain peptide antigens as those in FIG. 8 were complexed with CHP and administered subcutaneously to mice. After 16 hours, cells were collected from a regional lymph node of the administration site, and the fluorescence uptakes into dendritic cells and mouse macrophages were measured by flow cytometry with the P4 fraction in the figure being deemed to correspond to the dendritic cells and the P5 fraction in the figure being deemed to correspond to the macrophages.
A test of uptake of long chain peptide antigens by antigen-presenting cells in individual animals was performed as follows. Each long chain peptide was fluorescence-labeled, complexed with a CHP nanogel, administered subcutaneously to BALB/c mice. 16 hours after administration, cells were collected from lymph nodes and after staining with the anti-CD11c antibody and the anti-F4/80 antibody, the uptake of the fluorescence-labeled long chain peptide antigens by CD11c^+ cells (dendritic cells) and F4/80^+ cells (macrophages) was analyzed by flow cytometry.

[3] = tested on: CD8+ T cells specific to MA p265, NY p81 and mERK2 9m; test: Specific CD8+ T cell induction by CHP/long chain peptide vaccines in mice, intracellular cytokine staining of spleen cells; details: for induction of specific CD8+ T cells corresponding to all three types of epitopes: FIG. 1, MEN antigens complexed with CHP, subcutaneous, CpG oligo DNA adjuvant, spleen cells one week after final administration
Description: Long chain peptide antigens MEN, all containing three types of mouse CD8+ T cell epitope sequences (MA p265 (Sequence No. 27), NY p81 (Sequence No. 29), and mERK2 9m (Sequence No. 28)), were synthesized. The interepitope sequences between the respective epitopes were respectively six consecutive tyrosines (Y6) (Sequence No. 1), six consecutive glycines (G6) (Sequence No. 2), six consecutive prolines (P6) (Sequence No. 3), or six consecutive threonines (T6) (Sequence No. 4). Each long chain peptide antigen was complexed with cholesterol-modified pullulan (CHP), which is a type of delivery system, and administered as a vaccine to a mouse. In the process of administration, CpG oligo DNA was coadministered as an adjuvant. Spleen cells were collected one week after the final administration and the frequencies of CD8+ T cells specific to the respective epitope sequences were measured by an intracellular cytokine staining method.
Long chain peptide antigens NME, all containing three types of mouse CD8+ T cell epitope sequences (MA p265 (Sequence No. 27), NY p81 (Sequence No. 29), and mERK2 9m (Sequence No. 28)), were synthesized. The antigens differ from the MEN sequences shown in FIG. 1 in the order of the three types of epitopes. The interepitope sequences between the respective epitopes were respectively six consecutive tyrosines (Y6) (Sequence No. 5), six consecutive glycines (G6) (Sequence No. 6), or six consecutive prolines (P6) (Sequence No. 7). Vaccines containing the respective long chain peptide antigens were administered to mice in the same manner as in FIG. 1 and the frequencies of CD8+ T cells specific to the respective epitope sequences were measured by the intracellular cytokine staining method.
(§1) Long chain peptide antigens MEN, ENM, and NME, all containing three types of mouse CD8+ T cell epitope sequences (MA p265 (Sequence No. 27), NY p81 (Sequence No. 29), and mERK2 9m (Sequence No. 28)), were synthesized. MEN, ENM, and MEN differ in the order of the three types of epitopes. The interepitope sequences between the respective epitopes were each six consecutive tyrosines (Y6) (Sequence Nos. 1, 5 and 8). Vaccines containing the respective long chain peptide antigens were administered to mice in the same manner as in FIG. 1 and the frequencies of CD8+ T cells specific to the respective epitope sequences were measured by the intracellular cytokine staining method.
Each long chain peptide was dissolved in dimethyl sulfoxide (DMSO) at a concentration of 10 mg/mL. CHP was dissolved in 6 M urea-containing phosphate buffered saline (PBS) at a concentration of 10 mg/mL 1 mL (10 mg) of the long chain peptide solution and 20 mL (200 mg) of the CHP solution were mixed and left to stand at room temperature overnight in a dark place. The liquid mixture was transferred into a dialysis membrane (molecular weight cutoff: 3,500; Thermo Fisher Scientific, Inc.) and dialyzed for 2 hours to overnight at 4° C. against 0.6 M urea-containing PBS of a volume ratio of not less than 100 times as the dialysis outer solution. Dialysis was then performed for 2 hours to overnight at 4° C. against 0.06 M urea-containing PBS of a volume ratio of not less than 100 times as the dialysis outer solution. Dialysis was performed again for 2 hours to overnight at 4° C. against PBS of a volume ratio of not less than 100 times as the dialysis outer solution. The dialyzed inner solution was collected, filtered through a filtration sterilization filter of 0.45 μm or 0.22 μm pore size, and thereafter the UV absorption at 280 nm was measured to determine the final concentration of the long chain peptide from its molecular extinction coefficient.
Each CHP/long chain peptide complex as the vaccine and the CpG oligo DNA as the adjuvant were administered at the same time to a mouse. Administration was performed by subcutaneous injection on the back of the mouse. […]

[4] = tested on: mERK2 9m specific CD8+ T cells; test: Specific CD8+ T cell induction in mice, intracellular cytokine staining (mERK2 9m epitope); details: FIG. 6; comparing one to six tyrosines
Experimental: as §1, with “MEN,” for “MEN, ENM, and NME,”, “synthesized.” for “synthesized. MEN, ENM, and MEN differ in the order of the three types of epitopes.”, “one to” for “each”, “tyrosines” for “tyrosines (Y6)”, “1” for “1, 5”, “9-12).” for “8).”
as §1, with “MEN,” for “MEN, ENM, and NME,”, “synthesized.” for “synthesized. MEN, ENM, and MEN differ in the order of the three types of epitopes.”, “five to ten” for “each six”, “tyrosines” for “tyrosines (Y6)”, “1” for “1, 5”, “13-15).” for “8).”
Each CHP/long chain peptide complex as the vaccine and the CpG oligo DNA as the adjuvant were administered at the same time to a mouse. Administration was performed by subcutaneous injection on the back of the mouse. As the dose, the CHP/long chain peptide complex was administered at 0.05 to 0.1 mg equivalent of long chain peptide per administration. The CpG oligo DNA was administered at 0.05 mg per administration. One week after the final administration, spleen cells were separated by the following procedure from each vaccine-administered mouse. The spleen was isolated from the mouse and removed of blood by rinsing with RPMI1640 medium. After the spleen was triturated using a glass slide, the released cells were collected in RPMI1640 medium. After centrifuging (400×g, 5 minutes, 4° C.), the supernatant was removed and the cells were treated for 1 minute by adding 2 mL of ACK solution. […]

| Sequence | growth of the tumor [1] | fluorescence uptake into macrophages of the regional lymph node [2] | induction of specific CD8+ T cells corresponding to all three types of epitopes [3] | number of tyrosines of the interepitope sequence, judged in view of the results for the three types of epitopes ([3]; FIG. 6, comparing one to six tyrosines) | induction of specific CD8+ T cells, mERK2 9m (second epitope) [4] |
| --- | --- | --- | --- | --- | --- |
| SNPARYEFLGGGGGGQYIHSANVLGGGGGGRGPESRLL (Long chain peptide antigen, containing three types of mouse CD8+ T cell epitope sequences (MA p265, NY p81, and mERK2 9m)) [MEN(G6)] | significant suppression of tumor growth was not observed | hardly observed | clearly weak | – | – |
| SNPARYEFLPPPPPPQYIHSANVLPPPPPPRGPESRLL (Long chain peptide antigen, containing three types of mouse CD8+ T cell epitope sequences (MA p265, NY p81, and mERK2 9m)) [MEN(P6)] | significant suppression of tumor growth was not observed | hardly observed | clearly weak | – | – |
| SNPARYEFLYYYYQYIHSANVLYYYYRGPESRLL (Long chain peptide antigen, containing three types of mouse CD8+ T cell epitope sequences (MA p265, NY p81, and mERK2 9m)) [MEN(Y4)] | – | – | – | satisfactory | highest |

Reference: US11179450B2, “Long chain antigen containing interepitope sequence that promotes antigen presentation to T cells” (MIE UNIVERSITY, priority 2013, dated 2021)
